Experiments:
[1] = Compound was tested for inhibition of alpha-mannosidase from jack beans; NI means no inhibition.; design: species or system Canavalia ensiformis
[2] = Compound was tested for inhibition of beta-N-acetylglucosaminidase from jack beans.; design: species or system Canavalia ensiformis
Beta-galactosidase [3] = target: T1, Beta-galactosidase (Aspergillus niger, UniProt P29853); assay: Compound was tested for inhibition of beta-galactosidase from aspergillus niger; NI means no inhibition.
T1 sequence (P29853 whole entry): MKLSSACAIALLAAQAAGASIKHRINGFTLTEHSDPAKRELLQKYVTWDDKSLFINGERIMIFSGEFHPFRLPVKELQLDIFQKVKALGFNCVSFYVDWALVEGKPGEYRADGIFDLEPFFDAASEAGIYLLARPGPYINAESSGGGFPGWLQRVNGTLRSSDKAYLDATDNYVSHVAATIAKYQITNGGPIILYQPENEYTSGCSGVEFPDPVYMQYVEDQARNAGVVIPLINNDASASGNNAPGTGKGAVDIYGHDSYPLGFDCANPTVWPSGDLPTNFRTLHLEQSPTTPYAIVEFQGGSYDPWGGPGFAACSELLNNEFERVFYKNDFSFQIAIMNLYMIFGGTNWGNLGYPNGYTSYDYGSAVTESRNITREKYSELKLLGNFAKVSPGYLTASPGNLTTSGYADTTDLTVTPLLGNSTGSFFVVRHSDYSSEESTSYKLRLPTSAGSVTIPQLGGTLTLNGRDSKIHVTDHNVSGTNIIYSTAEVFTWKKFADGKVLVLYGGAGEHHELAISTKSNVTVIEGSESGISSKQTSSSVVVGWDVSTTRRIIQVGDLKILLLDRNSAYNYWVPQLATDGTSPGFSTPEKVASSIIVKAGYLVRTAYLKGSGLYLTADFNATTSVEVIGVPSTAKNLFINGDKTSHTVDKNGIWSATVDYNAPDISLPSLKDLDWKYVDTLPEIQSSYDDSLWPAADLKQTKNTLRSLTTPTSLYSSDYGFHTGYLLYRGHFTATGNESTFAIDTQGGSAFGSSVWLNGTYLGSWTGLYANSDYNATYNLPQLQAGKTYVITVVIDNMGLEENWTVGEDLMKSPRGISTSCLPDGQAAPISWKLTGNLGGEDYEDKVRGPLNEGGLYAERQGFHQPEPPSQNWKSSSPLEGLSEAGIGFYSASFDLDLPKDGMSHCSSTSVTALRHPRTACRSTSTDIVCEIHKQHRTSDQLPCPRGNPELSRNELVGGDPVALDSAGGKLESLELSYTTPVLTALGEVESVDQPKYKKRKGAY

Canavalia ensiformis [4] = assay: Compound was tested for % inhibition of alpha-mannosidase from jack beans.; settings: concentration not given here
Canavalia ensiformis [5] = assay: Compound was tested for % inhibition of beta-N-acetylglucosaminidase from jack beans.; settings: concentration not given here
[6] = system: Alpha-glucosidase (Saccharomyces cerevisiae); assay: Compound was tested for % inhibition of alpha-glucosidase from yeast.; settings: concentration not given here
[7] = system: beta-glucosidase (Prunus dulcis); assay: Compound was tested for % inhibition of beta-glucosidase from sweet almonds.; settings: concentration not given here
[8] = system: alpha-galactosidase (Coffea arabica); assay: Compound was tested for inhibition of alpha-galactosidase from green coffee beans; NI means no inhibition.
Beta-galactosidase [9] = target: T1, Beta-galactosidase; assay: Compound was tested for inhibition of beta-galactosidase from aspergillus niger.
[10] = Compound was tested for inhibition of alpha-mannosidase from jack beans.; design: species or system Canavalia ensiformis

| Ki [1] | Ki [2] [µM] | Ki (Beta-galactosidase [3]) | inhibition (Canavalia ensiformis [4]) [%] | inhibition (Canavalia ensiformis [5]) [%] | inhibition [6] [%] | inhibition [7] [%] | Ki [8] | Ki (Beta-galactosidase [9]) [µM] | Ki [10] [µM] | SMILES |
| --- | --- | --- | --- | --- | --- | --- | --- | --- | --- | --- |
| No inhibition | 4.6 | No inhibition | – | – | – | – | – | – | – | O[C@H]1[C@H](O)[C@H](O)CNC[C@H]1O |
| – | – | No inhibition | 11 | 6 | 6 | 14 | No inhibition | – | – | O[C@H]1[C@H](O)[C@H](O)CN(Cc2ccccc2)C[C@H]1O |
| – | 22.7 | – | – | – | – | – | – | 6.5 | 25.7 | O[C@H]1[C@H](O)[C@@H](O)CNC[C@@H]1O |

— ChEMBL document CHEMBL1149975, “Synthesis of C2-symmetrical polyhydroxyazepanes as inhibitors of glycosidases” (Bioorg Med Chem Lett, 1996)
